How the values were obtained:
Format in all cases: in vivo, mouse
[1] = test system: pregnant female μMT mice (LPS-induced PTL); assay: LPS-induced preterm labor in pregnant μMT mice: preterm delivery and neonatal/fetal mortality; conditions: read on gd 17.5, fPIBF1 1 μg (800 ng in method), cPIBF1 300 ng, vs PBS
Experimental: (§1) Six to ten-week old virgin female C57BL/6 (WT) or μMT mice were mated with male Balb/c mice. Female mice were examined daily in the early morning for the presence of a vaginal plug, which denoted gestational day (gd) 0.5. In the late morning of gd 16.5, pregnant female mice were intraperitoneally administered with 200 μl sterile PBS or 200 μl sterile PBS containing 0.5, 2.5, 5, 10 or 20 μg lipopolysaccharides (LPS) from Salmonella enterica serotype typhimurium (Sigma-Aldrich L6143). The various doses of LPS were given to the mice randomly. In some experiments, splenic B cells of 5 to 8-week old virgin female WT or IL-10−/− mice were purified using a mouse resting B cell negative isolation kit (Miltenyi Biotec 130-090-862) to 94% to 99% purity as determined by CD19 staining. 107 purified B cells were adoptively transferred in 200 μl sterile PBS into pregnant female μMT mice on gd 14.5 prior to LPS administration on gd 16.5. In some other experiments, 200 μl sterile PBS or 200 μl sterile PBS containing 800 ng recombinant full-length PIBF1 (fPIBF1) (aa 1-757 (SEQ ID NO:11, with an N-terminal glutathione-S-transferase (GST) tag of 232 amino acids, Abnova H00010464-P01) or 300 ng of a recombinant C-terminal fragment of PIBF1 (cPIBF1) (aa 660-755 (SEQ ID NO:12), with an N-terminal glutathione-S-transferase (GST) tag of 232 amino acids, Abnova H00010464-Q01) was intravenously administered to pregnant female μMT mice on gd 16.5 three hours prior to intraperitoneal LPS administration. 24 hours after LPS administration, female mice were examined for delivery and death of delivered pups if delivery occurred. They were then sacrificed for the examination of neonatal/fetal mortality, which was calculated as the total number of dead delivered pups and dead fetuses divided by the total number of implantation sites. Uteri were collected, briefly washed in PBS and processed for RNA and protein extraction or flow cytometry. The people performing the analysis were not blinded to the genotype or treatment of the mice.
The sample size was calculated based on the effect size derived from preliminary data at 5% significance level and 80% power using the software G*Power 3.1. Sample availability exceeded the estimated sample size. Results are expressed as mean±S.E.M. Percentage data were subjected to square root transformation prior to statistical analysis to verify test assumptions of equal variance. Statistical difference in the rate of PTL between different strains of mice or different treatment groups was assessed by Fisher's exact test. Statistical difference in neonatal/fetal mortality was assessed by Mann-Whitney U test. For flow cytometry and qRT-PCR data, Shapiro-Wilk test was used to determine the normality of the data. Statistical significance was assessed by Student's t-test for normally distributed data and Mann-Whitney U test for non-normally distributed data. p values <0.05 were considered statistically significant.

[2] = test system: uterine proinflammatory mediators (Tnf, Il6, Mmp9, Cxcl2, Cxcl3, Cxcl5, Il1b, Cxcl10, Ccl3, Cxcl1, Ccl2, Cxcl9 transcripts); assay: qRT-PCR of proinflammatory mediator transcripts in uterine tissues of LPS-challenged μMT mice; conditions: 24 hours after intravenous fPIBF1 and 5 μg intraperitoneal LPS, fold change of transcripts
Experimental: Six to ten-week old virgin female C57BL/6 (WT) or μMT mice were mated with male Balb/c mice. Female mice were examined daily in the early morning for the presence of a vaginal plug, which denoted gestational day (gd) 0.5. In the late morning of gd 16.5, pregnant female mice were intraperitoneally administered with 200 μl sterile PBS or 200 μl sterile PBS containing 0.5, 2.5, 5, 10 or 20 μg lipopolysaccharides (LPS) from Salmonella enterica serotype typhimurium (Sigma-Aldrich L6143). The various doses of LPS were given to the mice randomly. In some experiments, splenic B cells of 5 to 8-week old virgin female WT or IL-10−/− mice were purified using a mouse resting B cell negative isolation kit (Miltenyi Biotec 130-090-862) to 94% to 99% purity as determined by CD19 staining. 107 purified B cells were adoptively transferred in 200 μl sterile PBS into pregnant female μMT mice on gd 14.5 prior to LPS administration on gd 16.5. […] They were then sacrificed for the examination of neonatal/fetal mortality, which was calculated as the total number of dead delivered pups and dead fetuses divided by the total number of implantation sites. […]

[3] = test system: CD11b+Ly-6G+ neutrophils in uterine tissues; assay: Flow cytometry of uterine neutrophils of LPS-challenged μMT mice; conditions: vs PBS; for uterine neutrophil activation (CD11b, CD18, iNOS, ICAM-1, MHC-II, CD62L expression): μMT mice 24 hours after intravenous protein and intraperitoneal LPS
Experimental: as §1, with “Uteri were collected, briefly washed in PBS and processed for RNA and protein extraction or flow cytometry. The people performing the analysis were not blinded to the genotype or treatment of the mice.” left out
Cells were incubated with an Fc blocking reagent and stained at 4° C. with antibodies to various cell surface antigens (Tables 4, 5). […] Events were acquired on an LSR II cytometer (BD Biosciences) and analyzed by FlowJo (Tree Star). […]

For “fPIBF1: recombinant full-length PIBF1, aa 1-757, SEQ ID NO:11, N-terminal GST tag of 232 amino acids, Abnova H00010464-P01”, the neonatal/fetal mortality ([1]; protein intravenous on gd 16.5 before 5 μg intraperitoneal LPS) was “significantly reduced”, the “rate of preterm delivery (PTL)” value ([1]; protein intravenous on gd 16.5 three hours before 5 μg intraperitoneal LPS) was “significantly reduced” and the “uterine induction of proinflammatory mediators (uterine inflammation)” value [2] was “suppressed”. The “uterine induction of proinflammatory mediators (uterine inflammation)” value ([2]; listed as full-length PIBF1) was “reduces”, the “neutrophil infiltration into the uterus (frequency of CD11b+Ly-6G+ neutrophils in CD45+ cells)” value ([3]; gd 17.5 μMT mice after intravenous protein and intraperitoneal LPS on gd 16.5) was “inhibited” and the “uterine neutrophil activation (CD11b, CD18, iNOS, ICAM-1, MHC-II, CD62L expression)” value [3] was “reduced activation”. For the same substance, the “uterine neutrophil activation (CD11b, CD18, iNOS, ICAM-1, MHC-II, CD62L expression)” value ([3]; listed as full-length PIBF1) was “reduces”.
